Earlier results in patent publication US8846662B2, “Benzodiazepine and/or pharmaceutical composition comprising benzodiazepine derivatives” (Dr. Franz Koehler Chemie GmbH, priority 2008, dated 2014).

Test system: specific binding sites in the central nervous system
Conditions: background statement

Row | Structure (SMILES) | Affinity for specific binding sites in the central nervous system
1 | O=C1Nc2ccc(Cl)cc2C(c2ccccc2Cl)=NC1O (centres unmarked) [Lorazepam, 7-chloro-5-(o-chlorophenyl)-1,3-dihydro-3-hydroxy-2H-1,4-benzodiazepin-2-one] | very high affinity
2 | CN1C(=O)C(O)N=C(c2ccccc2Cl)c2cc(Cl)ccc21 (centres unmarked) [Lormetazepam, 9-chloro-6-(2-chlorophenyl)-4-hydroxy-2-methyl-2,5-diazabicyclo-[5.4.0]undeca-5,8,10,12-tetraen-3-one] | very high affinity
